Literature values as cited in patent US10898449B2, “Transdermal therapeutic system containing asenapine” (LTS LOHMANN Therapie-Systeme AG, priority 2016, dated 2021).

Key:
[1] = sublingual administration, therapeutic doses
patients = conditions: human, in vivo

terminal disposition half-life [1]: around 1 day | Somnolence and anxiety (very common), share of the patients (patients): ≥ 10%
SMILES: CN1C[C@H]2c3ccccc3Oc3ccc(Cl)cc3[C@@H]2C1 (relative stereo) [asenapine, (3aRS,12bRS)-rel-5-chloro-2,3,3a,12b-tetrahydro-2-methyl-1H-dibenz[2,3:6,7]oxepino[4,5-c]pyrrole]
